Assay results reported in patent US20230146455A1, “TREATMENT OF INFLAMMATORY DISEASES WITH PEPTIDES AND PHARMACEUTICAL COMPOSITIONS” (Yuyu Pharma, Inc., priority 2020, published 2023).
“And” between values parts separate entries of the source, which are not always exact repeats. Identical values can stand only once. Where a SMILES comes first, the peptide text is derived from it. [ ]: non-standard residue; d: D form. Hyp = O=C(O)[C@@H]1C[C@@H](O)CN1

Tested on: IL-4
Assay: Example 9 Luminex, LPS hPBMCs: IL-4
Format: cell-based, human
Experimental: Treatment Human PBMCs were pretreated with YY-101, YDE-011 and YDE-043 or reference compound; Xiidra® at various concentration (ranging from 1 nM to 100 uM) for 2 h before stimulation. An equal volume of 0.5% DMSO was used as a vehicle control. Then, the cells were treated with LPS at 5 ug/ml. The supernatants from treated cells were harvested at 24 h and placed in a 96 well for Luminex cytokine & chemokine profiling using a Luminex 200 multiplex assay (Luminex; R&D system, USA).
The main study arm with triplicate wells per group in a 24-well plate: • 1. Blank • 2. PBMC: 0.5% DMSO • 3. PBMC+LPS (5 ug/ml) • 4. PBMC+YY-101 100 uM • 5. PBMC+YY-101 10 uM • 6. PBMC+YY-101 1 uM • 7. PBMC+YY-101 0.1 uM • 8. PBMC+YY-101 0.01 uM • 9. PBMC+LPS (5 ug/ml)+Xiidra®100 uM • 10. PBMC+LPS (5 ug/ml)+Xiidra® 10 uM • 11. PBMC+LPS (5 ug/ml)+Xiidra® 1 uM • 12. PBMC+LPS (5 ug/ml)+Xiidra®0.1 uM • 13. PBMC+LPS (5 ug/ml)+Xiidra®0.01 uM • 14. PBMC+LPS (5 ug/ml)+Xiidra®0.001 uM • 15. PBMC+LPS (5 ug/ml)+YY-101 100 uM • 16. PBMC+LPS (5 ug/ml)+YY-101 10 uM • 17. PBMC+LPS (5 ug/ml)+YY-101 1 uM • 18. PBMC+LPS (5 ug/ml)+YY-101 0.1 uM • 19. PBMC+LPS (5 ug/ml)+YY-101 0.01 uM • 20. PBMC+LPS (5 ug/ml)+YY-101 0.001 uM • 21. PBMC+LPS (5 ug/ml)+YDE-011 100 uM • 22. PBMC+LPS (5 ug/ml)+YDE-011 10 uM • 23. PBMC+LPS (5 ug/ml)+YDE-011 1 uM • 24. PBMC+LPS (5 ug/ml)+YDE-011 0.1 uM • 25. PBMC+LPS (5 ug/ml)+YDE-011 0.01 uM • 26. PBMC+LPS (5 ug/ml)+YDE-011 0.001 uM • 27. PBMC+LPS (5 ug/ml)+YDE-043 100 uM • 28. PBMC+LPS (5 ug/ml)+YDE-043 10 uM • 29. PBMC+LPS (5 ug/ml)+YDE-043 1 uM • 30. PBMC+LPS (5 ug/ml)+YDE-043 0.1 uM • 31. PBMC+LPS (5 ug/ml)+YDE-043 0.01 uM • 32. PBMC+LPS (5 ug/ml)+YDE-043 0.001 uM
Multiplex assay was used to measure 30 cytokines and chemokines. The 1:2, 1:10 and 1:200 diluted cell supernatant and serial dilution of the standard were dispensed into a 96 well plate at 50 ul/well. Then, the pre-mixed cocktail of antibody-coated magnetic beads was dispensed at 50 ul/well and incubated at room temperature for 2 h in a horizontal orbital microplate shaker at 800±500 rpm. The beads were washed using a magnetic device to prevent loss. The biotin-antibody was dispensed in 50 ul of each well and incubated at room temperature for 1 h in a shaker at 800±500 rpm. After washing, streptavidin-PE was added at 50 ul/well and incubated at room temperature for 30 min in a shaker under the same conditions. Finally, after washing, wash buffer (100 ul/well) was added to the plate and incubated in a shaker for 2 min. The Luminex™ 200 setting were set according to the manufacturer's protocol. The data was calculated with a standard five-parameter logistic nonlinear regression analysis of the data (xPonent software 4.2, USA). The levels of cytokine/chemokine are normalized to the live cell counts (1×10^5 cells/mL) and presented as concentrations per mL (pg/mL or ng/mL).

[1] = PBMC + LPS(5 ug/ml) + test article 0.001 uM, Mean
[2] = PBMC + LPS(5 ug/ml) + test article 0.001 uM, single replicates
[3] = PBMC + LPS(5 ug/ml) + test article 0.01 uM, Mean
[4] = PBMC + LPS(5 ug/ml) + test article 0.01 uM, single replicates
[5] = PBMC + LPS(5 ug/ml) + test article 0.1 uM, Mean
[6] = PBMC + LPS(5 ug/ml) + test article 0.1 uM, single replicates
[7] = PBMC + LPS(5 ug/ml) + test article 1 uM, Mean
[8] = PBMC + LPS(5 ug/ml) + test article 1 uM, single replicates
[9] = PBMC + LPS(5 ug/ml) + test article 10 uM, Mean
[10] = PBMC + LPS(5 ug/ml) + test article 10 uM, single replicates
[11] = PBMC + LPS(5 ug/ml) + test article 100 uM, Mean
[12] = PBMC + LPS(5 ug/ml) + test article 100 uM, single replicates
[13] = PBMC + test article 0.01 uM, no LPS, Mean
[14] = PBMC + test article 0.01 uM, no LPS, single replicates
[15] = PBMC + test article 0.1 uM, no LPS, Mean
[16] = PBMC + test article 0.1 uM, no LPS, single replicates
[17] = PBMC + test article 1 uM, no LPS, Mean
[18] = PBMC + test article 1 uM, no LPS, single replicates
[19] = PBMC + test article 10 uM, no LPS, Mean
[20] = PBMC + test article 10 uM, no LPS, single replicates
[21] = PBMC + test article 100 uM, no LPS, Mean
[22] = PBMC + test article 100 uM, no LPS, single replicates

## CC(C)C[C@H](NC(=O)CNC(=O)[C@H](CC(=O)O)NC(=O)[C@H](CCC(N)=O)NC(=O)CNC(=O)[C@@H]1C[C@@H](O)CN1)C(=O)N[C@@H](C)C(=O)NCC(=O)N1CCC[C@H]1C(=O)N[C@@H](CCCCN)C(=O)O [YY-101] (H-[Hyp]GQDGLAGPK-OH; N-terminus and C-terminus assumed)
[1]
  Concentration, Bead name: IL-4: 26.0 pg/mL
  MFI, Bead name: IL-4: 1.0
  conc/live cell, Bead name: IL-4: 4.0 pg/10^5
[2]
  Concentration, Bead name: IL-4: 18.4 pg/mL and 33.2 pg/mL and 26.4 pg/mL
  MFI, Bead name: IL-4: 0.0 and 2.0 and 1.0
  conc/live cell, Bead name: IL-4: 3.2 pg/10^5 and 4.7 pg/10^5 and 4.0 pg/10^5
[3]
  Concentration, Bead name: IL-4: 33.2 pg/mL
  MFI, Bead name: IL-4: 2.0
  conc/live cell, Bead name: IL-4: 5.4 pg/10^5
[4]
  Concentration, Bead name: IL-4: 33.2 pg/mL
  MFI, Bead name: IL-4: 2.0
  conc/live cell, Bead name: IL-4: 5.2 pg/10^5 and 5.5 pg/10^5 and 5.4 pg/10^5
[5]
  Concentration, Bead name: IL-4: 39.2 pg/mL
  MFI, Bead name: IL-4: 3.0
  conc/live cell, Bead name: IL-4: 6.8 pg/10^5
[6]
  Concentration, Bead name: IL-4: 39.4 pg/mL and 45.1 pg/mL and 33.2 pg/mL
  MFI, Bead name: IL-4: 3.0 and 4.0 and 2.0
  conc/live cell, Bead name: IL-4: 6.4 pg/10^5 and 8.7 pg/10^5 and 5.4 pg/10^5
[7]
  Concentration, Bead name: IL-4: 33.2 pg/mL
  MFI, Bead name: IL-4: 2.0
  conc/live cell, Bead name: IL-4: 5.1 pg/10^5
[8]
  Concentration, Bead name: IL-4: 33.2 pg/mL
  MFI, Bead name: IL-4: 2.0
  conc/live cell, Bead name: IL-4: 5.3 pg/10^5 and 4.7 pg/10^5 and 5.4 pg/10^5
[9]
  Concentration, Bead name: IL-4: 23.7 pg/mL
  MFI, Bead name: IL-4: 0.7
  conc/live cell, Bead name: IL-4: 3.6 pg/10^5
[10]
  Concentration, Bead name: IL-4: 26.4 pg/ml (2×) and 18.4 pg/ml
  MFI, Bead name: IL-4: 1.0 (2×) and 0.0
  conc/live cell, Bead name: IL-4: 4.4 pg/10^5 and 4.1 pg/10^5 and 2.4 pg/10^5
[11]
  Concentration, Bead name: IL-4: 14.8 pg/mL
  MFI, Bead name: IL-4: −0.3
  conc/live cell, Bead name: IL-4: 2.5 pg/10^5
[12]
  Concentration, Bead name: IL-4: 18.4 pg/ml (2×) and 7.7 pg/ml
  MFI, Bead name: IL-4: 0.0 (2×) and −1.0
  conc/live cell, Bead name: IL-4: 2.9 pg/10^5 and 3.0 pg/10^5 and 1.5 pg/10^5
[13]
  Concentration, Bead name: IL-4: 27.9 pg/mL
  MFI, Bead name: IL-4: 1.3
  conc/live cell, Bead name: IL-4: 5.6 pg/10^5
[14]
  Concentration, Bead name: IL-4: 22.6 pg/mL and 33.2 pg/mL
  MFI, Bead name: IL-4: 0.5 and 2.0
  conc/live cell, Bead name: IL-4: 4.3 pg/10^5 and 6.9 pg/10^5
[15]
  Concentration, Bead name: IL-4: 29.8 pg/mL
  MFI, Bead name: IL-4: 1.5
  conc/live cell, Bead name: IL-4: 5.9 pg/10^5
[16]
  Concentration, Bead name: IL-4: 26.4 pg/mL and 33.2 pg/mL
  MFI, Bead name: IL-4: 1.0 and 2.0
  conc/live cell, Bead name: IL-4: 6.0 pg/10^5 and 5.7 pg/10^5
[17]
  Concentration, Bead name: IL-4: 18.4 pg/mL
  MFI, Bead name: IL-4: 0.0
  conc/live cell, Bead name: IL-4: 3.3 pg/10^5
[18]
  Concentration, Bead name: IL-4: 18.4 pg/mL
  MFI, Bead name: IL-4: 0.0
  conc/live cell, Bead name: IL-4: 3.3 pg/10^5
[19]
  Concentration, Bead name: IL-4: 47.4 pg/mL
  MFI, Bead name: IL-4: 4.5
  conc/live cell, Bead name: IL-4: 7.6 pg/10^5
[20]
  Concentration, Bead name: IL-4: 55.5 pg/mL and 39.4 pg/mL
  MFI, Bead name: IL-4: 6.0 and 3.0
  conc/live cell, Bead name: IL-4: 8.7 pg/10^5 and 6.5 pg/10^5
[21]
  Concentration, Bead name: IL-4: 13.0 pg/mL
  MFI, Bead name: IL-4: −0.5
  conc/live cell, Bead name: IL-4: 1.9 pg/10^5
[22]
  Concentration, Bead name: IL-4: 7.7 pg/mL and 18.4 pg/mL
  MFI, Bead name: IL-4: −1.0 and 0.0
  conc/live cell, Bead name: IL-4: 1.2 pg/10^5 and 2.6 pg/10^5
